Among the data in patent US11084818B2 (HEPO PHARMACEUTICAL CO., LTD., priority 2016, dated 2021) are EC50 values, retold here.

One assay concerns the target T1, hTLR7 (Homo sapiens, UniProt Q9NYK1).
T1 construct: host or cells: HEK-Blue hTLR7 (HEK293-derived reporter line)
T1 sequence (Q9NYK1 27-1049): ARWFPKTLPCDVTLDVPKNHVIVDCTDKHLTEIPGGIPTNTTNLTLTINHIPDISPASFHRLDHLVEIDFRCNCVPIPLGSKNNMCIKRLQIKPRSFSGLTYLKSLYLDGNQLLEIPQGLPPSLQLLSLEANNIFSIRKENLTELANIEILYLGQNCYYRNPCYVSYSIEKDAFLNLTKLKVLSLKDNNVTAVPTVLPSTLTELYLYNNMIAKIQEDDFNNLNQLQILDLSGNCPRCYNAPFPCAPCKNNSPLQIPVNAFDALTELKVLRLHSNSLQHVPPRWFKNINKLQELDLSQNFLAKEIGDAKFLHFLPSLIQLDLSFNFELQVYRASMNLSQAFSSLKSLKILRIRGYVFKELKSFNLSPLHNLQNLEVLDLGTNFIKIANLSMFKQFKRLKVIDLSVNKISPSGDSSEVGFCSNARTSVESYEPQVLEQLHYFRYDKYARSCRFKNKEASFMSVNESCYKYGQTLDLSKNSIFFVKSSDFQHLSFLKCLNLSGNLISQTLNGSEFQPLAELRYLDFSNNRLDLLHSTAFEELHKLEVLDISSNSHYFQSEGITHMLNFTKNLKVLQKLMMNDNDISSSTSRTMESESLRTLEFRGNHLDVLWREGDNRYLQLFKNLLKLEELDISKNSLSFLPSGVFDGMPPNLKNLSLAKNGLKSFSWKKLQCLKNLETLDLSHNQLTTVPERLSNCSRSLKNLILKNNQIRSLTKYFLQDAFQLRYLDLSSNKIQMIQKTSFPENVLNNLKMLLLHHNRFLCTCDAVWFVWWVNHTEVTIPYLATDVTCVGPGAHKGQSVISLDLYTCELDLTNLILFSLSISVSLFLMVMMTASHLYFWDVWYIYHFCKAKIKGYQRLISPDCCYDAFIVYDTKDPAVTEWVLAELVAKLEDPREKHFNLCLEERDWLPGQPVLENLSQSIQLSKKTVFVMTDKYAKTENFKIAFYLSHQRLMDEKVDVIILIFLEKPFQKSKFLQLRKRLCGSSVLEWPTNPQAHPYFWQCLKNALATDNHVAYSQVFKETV
In words: Activation activity test of hTLR7 (HEK-Blue hTLR7 cells, QUANTI-Blue OD650). It is filed as cell-based. Particulars: 24 hours incubation, read-out: TLR7 (EC50). The method, then:
(§1) Effect Example 1: Activation Activity Test of hTLR7 and hTLR8
(§2) Cell lines: HEK-Blue™ hTLR7 and HEK-Blue™ hTLR8 (InvivoGen Co.)
(§3) Primary reagents: QUANTI-Blue™ (InvivoGen) and ATPlite 1 Step (PerkinElmer)
(§4) Primary instruments: Automatic Liquid Handling Workstation (Labcyte, Model: Echo), Cell Counter (Countstar, IC1000) and Multifunctional Enzyme Marker (Molecular Device, Flexstation III).
(§5) 2.1 The tested compounds were formulated into a 60 mM concentrated stock solution in DMSO and stored in a nitrogen cabinet.
(§6) 2.3 The T150 cultured cells were taken out from the CO2 incubator and the cell culture supernatant was discarded. The cells were washed with PBS once, followed by addition of about 10 mL of the culture solution. The cells were dissociated by patting the cell culture flask, and gently blown to even by a pipette.
(§7) The cells were counted, and the cell suspension was adjusted to 200,000 cells/mL by the culture solution. Thereafter, 200 μL of diluted cells was added to each well in a 96-well plate containing the compound (40,000 cells/well).
(§8) 2.4 The compounds and cells were incubated in a 5% CO2 incubator at 37° C. for 24 hours.
(§9) 2.5 Compound activity assay: 20 μl of the cell supernatant of each well after induction was added to a cell culture plate containing 180 μL of reagent QUANTI-Blue™, and incubated at 37° C. for 1.5 hours. Thereafter, the optical density absorption (OD650) of each well at 650 nm was measured using a Multifunctional Enzyme Marker: Flexstation III.
(§10) 2.6 Compound Activity: OD650 values were analyzed using GraphPad Prism software and the dose-response curves for the compound were fitted to calculate the EC50 values of the compound.

The target in the next assay is T2, hTLR8 (Homo sapiens, UniProt Q9NR97).
T2 construct: host or cells: HEK-Blue hTLR8 (HEK293-derived reporter line)
T2 sequence (Q9NR97 27-1041): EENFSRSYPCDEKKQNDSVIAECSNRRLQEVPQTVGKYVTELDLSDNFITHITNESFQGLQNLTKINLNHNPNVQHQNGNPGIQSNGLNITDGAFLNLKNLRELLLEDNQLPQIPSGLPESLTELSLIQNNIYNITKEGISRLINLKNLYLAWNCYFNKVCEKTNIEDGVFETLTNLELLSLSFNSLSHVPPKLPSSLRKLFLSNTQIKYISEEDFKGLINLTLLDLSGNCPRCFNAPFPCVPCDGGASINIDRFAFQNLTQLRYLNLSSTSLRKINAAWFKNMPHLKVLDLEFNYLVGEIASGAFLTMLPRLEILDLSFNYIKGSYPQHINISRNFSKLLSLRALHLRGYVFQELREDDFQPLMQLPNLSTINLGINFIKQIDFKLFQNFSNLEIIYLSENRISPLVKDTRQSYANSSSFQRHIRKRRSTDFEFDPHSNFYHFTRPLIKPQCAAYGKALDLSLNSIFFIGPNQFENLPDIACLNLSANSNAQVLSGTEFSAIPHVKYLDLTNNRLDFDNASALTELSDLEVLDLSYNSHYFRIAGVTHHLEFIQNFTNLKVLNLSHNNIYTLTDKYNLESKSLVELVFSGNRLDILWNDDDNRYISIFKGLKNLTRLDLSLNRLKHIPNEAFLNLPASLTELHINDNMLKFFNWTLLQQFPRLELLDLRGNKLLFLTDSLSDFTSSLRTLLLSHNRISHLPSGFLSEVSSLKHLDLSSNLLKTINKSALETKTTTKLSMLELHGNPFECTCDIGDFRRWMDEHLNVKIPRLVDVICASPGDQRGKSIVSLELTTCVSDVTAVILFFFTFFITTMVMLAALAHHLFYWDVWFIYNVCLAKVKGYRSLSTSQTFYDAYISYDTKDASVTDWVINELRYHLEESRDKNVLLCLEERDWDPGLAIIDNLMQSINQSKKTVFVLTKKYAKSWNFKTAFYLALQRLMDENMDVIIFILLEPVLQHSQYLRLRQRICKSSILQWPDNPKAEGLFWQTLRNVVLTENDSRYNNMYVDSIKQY
The experiment in a line: Activation activity test of hTLR8 (HEK-Blue hTLR8 cells, QUANTI-Blue OD650). It counts as cell-based. The following applies: HEK-Blue hTLR8 cells, 24 hours incubation; read-out: TLR8 (EC50). How it is done:
as §1, §2, §3, §4, §5, §6, §7, §8, §9, §10

As for `COCCOc1ccc2[nH]c(=O)n(Cc3ccc(CN4CCCC4)cc3)c2n1` [Example 40, 5-(2-methoxyethoxy)-3-(4-(pyrrolidin-1-ylmethyl)benzyl)-1,3-dihydro-2H-imidazole[4,5-b]pyridin-2-one], the EC50 on hTLR7 and at hTLR8 was more than 100 µM in each case.
As to `COCCOc1ncc2[nH]c(=O)n(Cc3ccc([C@H](C)N4CCCC4)cc3)c2n1` [Example 41, (S)-2-(2-methoxyethoxy)-9-(4-(1-(pyrrolidin-1-yl)ethyl)benzyl)-7,9-dihydro-8H-purin-8-one], the concentration giving a half-maximal response (EC50) (usually the concentration giving half of the maximal effect) is 0.001 to 1 µM at hTLR7 and more than 100 µM on hTLR8.
Turning to `COCCOc1ncc2[nH]c(=O)n(Cc3ccc([C@@H](C)N4CCCC4)cc3)c2n1` [Example 42, (R)-2-(2-methoxyethoxy)-9-(4-(1-(pyrrolidin-1-yl)ethyl)benzyl)-7,9-dihydro-8H-purin-8-one], the EC50 at hTLR7 is 0.001 to 1 µM; at hTLR8, more than 100 µM.
`O=c1[nH]c2cnc(OCCOC(F)(F)F)nc2n1Cc1ccc(CN2CCCC2)cc1` [Example 43]: the EC50 on hTLR7 is 0.001 to 1 µM; on hTLR8, more than 100 µM.
In the case of `COCCCOc1ncc2[nH]c(=O)n(Cc3ccc(CN4CCCC4)cc3)c2n1` [Example 45, 9-(4-(pyrrolidin-1-ylmethyl)benzyl)-2-(3-methoxypropoxy)-7,9-dihydro-8H-purin-8-one], the EC50 at hTLR7 was 0.001 to 1 µM; on hTLR8, more than 100 µM.
Consider `O=c1[nH]c2cnc(OCC3CCCO3)nc2n1Cc1ccc(CN2CCCC2)cc1` (centres unmarked) [Example 46, 9-(4-(pyrrolidin-1-ylmethyl)benzyl)-2-((tetrahydrofuran-2-yl)methoxy)-7,9-dihydro-8H-purin-8-one], for which the EC50 at hTLR7 was 1 to 10 µM; at hTLR8, more than 100 µM.
On to `COCCCCOc1ncc2[nH]c(=O)n(Cc3ccc(CN4CCCC4)cc3)c2n1` [Example 47, 9-(4-(pyrrolidin-1-ylmethyl)benzyl)-2-(4-methoxybutoxy)-7,9-dihydro-8H-purin-8-one], for which the values for the EC50 at hTLR7 and at hTLR8 were 1 to 10 µM and more than 100 µM, respectively.
The like results for `O=c1[nH]c2cnc(OCCOCC(F)(F)F)nc2n1Cc1ccc(CN2CCCC2)cc1` [Example 48, 9-(4-(pyrrolidin-1-ylmethyl)benzyl)-2-(2-(2,2,2-trifluoroethoxy)ethoxy)-7,9-dihydro-8H-purin-8-one] were, in that order, 0.001 to 1 µM and more than 100 µM.
With `COC(C)CCOc1ncc2[nH]c(=O)n(Cc3ccc(CN4CCCC4)cc3)c2n1` (centres unmarked) [Example 49, 9-(4-(pyrrolidin-1-ylmethyl)benzyl)-2-(3-methoxybutoxy)-7,9-dihydro-8H-purin-8-one], the EC50 was 0.001 to 1 µM at hTLR7 and more than 100 µM at hTLR8.
`O=c1[nH]c2cnc(OCCCOC(F)(F)F)nc2n1Cc1ccc(CN2CCCC2)cc1` [Example 50, 9-(4-(pyrrolidin-1-ylmethyl)benzyl)-2-(3-(trifluoromethoxy)propoxy)-7,9-dihydro-8H-purin-8-one]: the EC50 at hTLR7 is 0.001 to 1 µM; at hTLR8 it was more than 100 µM.
Consider `COCCOc1ncc2[nH]c(=O)n(Cc3ccc(CN4CC5CC(C5)C4)cc3)c2n1` [Example 52, 9-(4-((3-azabicyclo[3.1.1]heptan-3-yl)methyl)benzyl)-2-(2-methoxyethoxy)-7,9-dihydro-8H-purin-8-one], for which the EC50 is 1 to 10 µM on hTLR7 and more than 100 µM on hTLR8.
In the case of `COCCOc1ncc2[nH]c(=O)n(Cc3ccc(CN4C5CCC4CC5)cc3)c2n1` [Example 53, 9-(4-((7-azabicyclo[2.2.1]heptan-7-yl)methyl)benzyl)-2-(2-methoxyethoxy)-7,9-dihydro-8H-purin-8-one], the results for the EC50 at hTLR7 and on hTLR8 were 1 to 10 µM and more than 100 µM, respectively.
Turning to `COCCOc1ncc2[nH]c(=O)n(Cc3ccc(CN4CCC(F)(F)C4)cc3)c2n1` [Example 54, 9-(4-((3,3-difluoropyrrolidin-1-yl)methyl)benzyl)-2-(2-methoxyethoxy)-7,9-dihydro-8H-purin-8-one], the EC50 at hTLR7 is 10 to 100 µM; on hTLR8, more than 100 µM.
`O=c1[nH]c2cnc(OCCOC(F)(F)F)nc2n1Cc1ccc(CN2CC=CC2)cc1` [Example 55]: the EC50 is 0.001 to 1 µM on hTLR7 and more than 100 µM at hTLR8.
As to `COCCOc1ncc2c(n1)n(Cc1ccc(CN3CCCC3)cc1)c(=O)n2C` [Example 56, 9-(4-(pyrrolidin-1-ylmethyl)benzyl)-7-methyl-2-(2-methoxyethoxy)-7,9-dihydro-8H-purin-8-one], the EC50 on hTLR7 and on hTLR8 was more than 100 µM in each case.
`CCCn1c(=O)n(Cc2ccc(CN3CCCC3)cc2)c2nc(OCCOC)ncc21` [Example 57, 9-(4-(pyrrolidin-1-ylmethyl)benzyl)-7-propyl-2-(2-methoxyethoxy)-7,9-dihydro-8H-purin-8-one]: the EC50 on hTLR7 and on hTLR8 was more than 100 µM throughout.
Turning to `COCCOc1nc(C)c2[nH]c(=O)n(Cc3ccc(CN4CCCC4)cc3)c2n1` [Example 58, 9-(4-(pyrrolidin-1-ylmethyl)benzyl)-6-methyl-2-(2-methoxyethoxy)-7,9-dihydro-8H-purin-8-one], the EC50 on hTLR7 and on hTLR8 was more than 100 µM throughout.
`COCCOc1ncc2nc(C)n(Cc3ccc(CN4CCCC4)cc3)c2n1` [Example 59, 2-(2-methoxyethoxy)-8-methyl-9-(4-(pyrrolidin-1-ylmethyl)benzyl)-9H-purine]: the EC50 on hTLR7 and at hTLR8 was more than 100 µM each time.
Turning to `COCCOc1ncc2[nH]c(=S)n(Cc3ccc(CN4CCCC4)cc3)c2n1` [Example 60, 2-(2-methoxyethoxy)-9-(4-(pyrrolidin-1-ylmethyl)benzyl)-7,9-dihydro-8H-purin-8-thione], the EC50 at hTLR7 and at hTLR8 was more than 100 µM throughout.
